Active and inactive are the calls of the source. No rule for the calls is given here.
Tested on: GENE-TOX genotoxicity assays, various organisms and cells
Assay: GENE-TOX mutagenicity studies
Conditions: for call: Assay Type: In vivo carcinogenicity studies
[1] = Species/Cell Type: Drosophila melanogaster, Sex: Male, Assay Type: Heritable translocation test, chromosome aberrations, Assay Code: DHTT, Evaluation Type: Evaluation A (Pre-1980)
[2] = Species/Cell Type: Nonhuman, Assay Code: CCG+, Evaluation Type: Evaluation A (Pre-1980)
[3] = Species/Cell Type: Saccharomyces cerevisiae, Assay Type: Mitotic recombination or gene conversion, Assay Code: YEC+, Evaluation Type: Evaluation A (Pre-1980)
[4] = Species/Cell Type: Escherichia coli polA (W3119 vs P3478), Assay Type: Rec-assay, DNA effects (bacterial DNA repair), Assay Code: RE1T, Evaluation Type: Evaluation A (Pre-1980)
[5] = Species/Cell Type: Human, Assay Type: Sister-chromatid exchange (SCE) in vitro, Assay Code: SC1T, Evaluation Type: Evaluation B (Post-1980)
[6] = Species/Cell Type: Salmonella typhimurium, Assay Type: Forward and reverse gene mutation, host-mediated assay, Assay Code: HMA-, Evaluation Type: Evaluation A (Pre-1980)

CCN(N=O)C(N)=O
no conclusion: mutagenic call [1] | mutagenic call (Species/Cell Type: Syrian hamster embryo (SHE) cells, Assay Type: Cell transformation, clonal assay, Assay Code: CTCT, Evaluation Type: Evaluation A (Pre-1980))
active: mutagenic call (Species/Cell Type: Arabidopsis species, Assay Type: Gene mutation, Assay Code: ARM+D, Dose Response: With dose response, Evaluation Type: Evaluation A (Pre-1980)) active; positive | mutagenic call (Species/Cell Type: Chinese hamster ovary (CHO) cells, Assay Type: Forward gene mutation at the HPRT locus, Assay Code: CHO+D, Dose Response: With dose response, Evaluation Type: Evaluation A (Pre-1980)) active; positive | mutagenic call (Species/Cell Type: Drosophila melanogaster, Assay Type: Aneuploidy, partial sex chromosome loss, chromosome aberrations, Assay Code: DAP+M, Evaluation Type: Evaluation A (Pre-1980)) active; positive | mutagenic call (Species/Cell Type: Drosophila melanogaster, Assay Type: Aneuploidy, whole sex chromosome loss, chromosome aberrations, Assay Code: DAC+M, Evaluation Type: Evaluation A (Pre-1980)) active; positive | mutagenic call (Species/Cell Type: Drosophila melanogaster, Assay Type: Sex-linked recessive lethal gene mutation, Assay Code: SRL+, Evaluation Type: Evaluation A (Pre-1980)) active; positive | mutagenic call (Species/Cell Type: Escherichia coli polA (W3119 vs P3478), Assay Type: Rec-assay, DNA effects (bacterial DNA repair), Assay Code: RE1+, Evaluation Type: Evaluation A (Pre-1980)) active; positive | mutagenic call (Species/Cell Type: Fischer rat embryo (RLV/1706) cells, Assay Type: Cell transformation, viral enhanced, Assay Code: CTR+, Evaluation Type: Evaluation A (Pre-1980)) active; positive | mutagenic call (Species/Cell Type: Hordeum vulgare (barley), Assay Type: Chromosome aberrations, Assay Code: HOC+, Evaluation Type: Evaluation A (Pre-1980)) active; positive | mutagenic call (Species/Cell Type: Hordeum vulgare (barley), Assay Type: Gene mutation, Assay Code: HOM+, Evaluation Type: Evaluation A (Pre-1980)) active; positive | mutagenic call (Species/Cell Type: Human diploid fibroblasts, Assay Type: Unscheduled DNA synthesis (UDS) in vitro, DNA effects, Assay Code: UDH+, Evaluation Type: Evaluation A (Pre-1980)) active; positive | mutagenic call (Species/Cell Type: Human lymphocytes or leukocytes, Assay Type: Chromosome aberrations in vitro, Assay Code: CY7+D, Dose Response: With dose response, Evaluation Type: Evaluation A (Pre-1980)) active; positive | mutagenic call (Species/Cell Type: Human, Assay Type: Sister-chromatid exchange (SCE) in vitro, Assay Code: SC1+, Evaluation Type: Evaluation A (Pre-1980)) active; positive | mutagenic call (Species/Cell Type: Mammalian polychromatic erythrocytes, Assay Type: Micronucleus test, chromosome aberrations, Assay Code: MNT+, Evaluation Type: Evaluation B (Post-1980)) active; positive | mutagenic call (Species/Cell Type: Mouse germ cells, Sex: Male, Assay Type: Unscheduled DNA synthesis (UDS) in vivo, DNA effects, Assay Code: UDT+, Evaluation Type: Evaluation A (Pre-1980)) active; positive | mutagenic call (Species/Cell Type: Mouse, Sex: Female, Assay Type: Spot test, gene mutation, Assay Code: MST+, Evaluation Type: Evaluation A (Pre-1980)) active; positive | mutagenic call (Species/Cell Type: Mouse, Sex: Male, Assay Type: Specific locus test, gene mutation, Assay Code: SLT+, Evaluation Type: Evaluation A (Pre-1980)) active; positive | mutagenic call (Species/Cell Type: Neurospora crassa, Assay Type: Forward gene mutation, Assay Code: NEF+, Evaluation Type: Evaluation A (Pre-1980)) active; positive | mutagenic call (Species/Cell Type: Nonhuman bone marrow, Assay Type: Chromosome aberrations, in vivo, Assay Code: CY#+, Evaluation Type: Evaluation A (Pre-1980)) active; positive | call [2] active; positive | mutagenic call (Species/Cell Type: Nonhuman, Assay Type: Sister-chromatid exchange (SCE) in vitro, Assay Code: SC2+D, Dose Response: With dose response, Evaluation Type: Evaluation A (Pre-1980)) active; positive | mutagenic call (Species/Cell Type: Nonhuman, Assay Type: Sister-chromatid exchange (SCE) in vivo, Assay Code: SC3+D, Dose Response: With dose response, Evaluation Type: Evaluation B (Post-1980)) active; positive | mutagenic call [3] active; positive | mutagenic call (Species/Cell Type: Saccharomyces cerevisiae, Assay Type: Mitotic recombination or gene conversion, Assay Code: YEH+, Evaluation Type: Evaluation A (Pre-1980)) active; positive | mutagenic call (Species/Cell Type: Salmonella typhimurium (one or more of the five standard strains: TA98, TA100, TA1535, TA1537, and TA1538), Assay Type: Histidine reverse gene mutation, Ames assay, Assay Code: SAL+, Evaluation Type: Evaluation A (Pre-1980)) active; positive | mutagenic call (Species/Cell Type: Salmonella typhimurium, Assay Type: Forward and reverse gene mutation, host-mediated assay, Assay Code: HMA+, Evaluation Type: Evaluation A (Pre-1980)) active; positive | mutagenic call (Species/Cell Type: Vicia faba, Assay Type: Chromosome aberrations, Assay Code: VIC+, Evaluation Type: Evaluation A (Pre-1980)) active; positive | mutagenic call (Species/Cell Type: Zea mays (corn), Assay Type: Gene mutation, Assay Code: ZEM+D, Dose Response: With dose response, Evaluation Type: Evaluation A (Pre-1980)) active; positive

CN(CCCCC(=O)OC[C@H](N)C(=O)O)N=O
no conclusion: mutagenic call (Species/Cell Type: Escherichia coli polA (W3110 vs P3478), Assay Type: Rec-assay, DNA effects (bacterial DNA repair), Assay Code: RE2T, Evaluation Type: Evaluation A (Pre-1980)) | mutagenic call [4]

Cc1c2ccccc2cc2c3c(ccc12)C=CC(O)C3O (stereo not given)
active: mutagenic call (Species/Cell Type: Salmonella typhimurium (one or more of the five standard strains: TA98, TA100, TA1535, TA1537, and TA1538), Assay Type: Histidine reverse gene mutation, Ames assay, Assay Code: SAL+*, Activation: With metabolic activation, Evaluation Type: Evaluation A (Pre-1980)) active; positive

CC(=O)Nc1ccc2c(ccc3ccccc32)c1
active: call (Species/Cell Type: Nonhuman, Assay Code: CCG+L, Evaluation Type: Evaluation A (Pre-1980)) active; positive
inactive: mutagenic call (Species/Cell Type: Human diploid fibroblasts, Assay Type: Unscheduled DNA synthesis (UDS) in vitro, DNA effects, Assay Code: UDH-, Evaluation Type: Evaluation A (Pre-1980)) inactive; negative

O=C(OCC1CCN2CCC(OC(=O)c3ccc([N+](=O)[O-])cc3)C12)c1ccc([N+](=O)[O-])cc1 (stereo not given)
inactive: mutagenic call (Species/Cell Type: Allium cepa, Assay Type: Chromosome aberrations, Assay Code: ALC-, Evaluation Type: Evaluation A (Pre-1980)) inactive; negative

CCCOC(=O)c1cc(O)c(O)c(O)c1
no conclusion: mutagenic call [5]

CS(C)=O
inactive: mutagenic call (Species/Cell Type: Drosophila melanogaster, Assay Type: Aneuploidy, whole sex chromosome loss, chromosome aberrations, Assay Code: DAC-M, Evaluation Type: Evaluation A (Pre-1980)) inactive; negative | mutagenic call (Species/Cell Type: Drosophila melanogaster, Assay Type: Sex-linked recessive lethal gene mutation, Assay Code: SRL-, Evaluation Type: Evaluation A (Pre-1980)) inactive; negative | mutagenic call (Species/Cell Type: Escherichia coli polA (W3110 vs P3478), Assay Type: Rec-assay, DNA effects (bacterial DNA repair), Assay Code: RE2-, Evaluation Type: Evaluation A (Pre-1980)) inactive; negative | mutagenic call (Species/Cell Type: Fischer rat embryo (RLV/1706) cells, Assay Type: Cell transformation, viral enhanced, Assay Code: CTR-, Evaluation Type: Evaluation A (Pre-1980)) inactive; negative | mutagenic call (Species/Cell Type: Mouse embryo (AKR/ME) cells, Assay Type: Cell transformation, Assay Code: CTK-, Evaluation Type: Evaluation A (Pre-1980)) inactive; negative | mutagenic call (Species/Cell Type: Neurospora crassa, Assay Type: Aneuploidy, chromosome aberrations, Assay Code: NEN-, Evaluation Type: Evaluation A (Pre-1980)) inactive; negative | mutagenic call (Species/Cell Type: Nonhuman, Assay Type: Sister-chromatid exchange (SCE) in vitro, Assay Code: SC2-, Evaluation Type: Evaluation A (Pre-1980)) inactive; negative | mutagenic call (Species/Cell Type: Salmonella typhimurium (one or more of the five standard strains: TA98, TA100, TA1535, TA1537, and TA1538), Assay Type: Histidine reverse gene mutation, Ames assay, Assay Code: SAL-, Evaluation Type: Evaluation A (Pre-1980)) inactive; negative | mutagenic call [6] inactive; negative | mutagenic call (Species/Cell Type: Syrian hamster embryo (SHE) cells, Assay Type: Cell transformation, clonal assay, Assay Code: CTC-, Evaluation Type: Evaluation A (Pre-1980)) inactive; negative
active: mutagenic call (Species/Cell Type: Aspergillus nidulans, Assay Type: Aneuploidy, chromosome aberrations, Assay Code: ASN+, Evaluation Type: Evaluation A (Pre-1980)) active; positive | mutagenic call (Species/Cell Type: Nonhuman, Assay Type: Sister-chromatid exchange (SCE) in vivo, Assay Code: SC3+, Evaluation Type: Evaluation B (Post-1980)) active; positive | mutagenic call [3] active; positive
no conclusion: mutagenic call (Species/Cell Type: Aspergillus nidulans, Assay Type: Mitotic recombination, Assay Code: ASGT, Evaluation Type: Evaluation A (Pre-1980)) | mutagenic call (Species/Cell Type: Bacillus subtilis (H17 vs M45), Assay Type: Rec-assay, spot test, DNA effects (bacterial DNA repair), Assay Code: REWT, Evaluation Type: Evaluation A (Pre-1980)) | mutagenic call [1] | mutagenic call [4] | mutagenic call (Species/Cell Type: Human lymphocytes, Assay Type: Sister-chromatid exchange (SCE) in vitro, Assay Code: SCLT, Evaluation Type: Evaluation B (Post-1980)) | mutagenic call [5] | call (Species/Cell Type: Nonhuman, Assay Code: CCGT, Evaluation Type: Evaluation A (Pre-1980)) | mutagenic call (Species/Cell Type: Rodents, Sex: Male, Assay Type: Dominant lethal test, Assay Code: DLTT, Evaluation Type: Evaluation A (Pre-1980))

CCCCSC(=Nc1cccnc1)SCc1ccc(C(C)(C)C)cc1
inactive: mutagenic call [6] inactive; negative

C[C@]12CC[C@@H]3c4ccc(O)cc4CC[C@H]3[C@@H]1CCC2=O
active: call [2] active; positive

C[C@@H](CC[C@H](C)OS(C)(=O)=O)OS(C)(=O)=O
active: mutagenic call (Species/Cell Type: Rodents, Sex: Male, Assay Type: Dominant lethal test, Assay Code: DLT+, Evaluation Type: Evaluation A (Pre-1980)) active; positive
